Patent US20160090556A1, “PRODUCTS COMPRISING MALODOR REDUCTION MATERIALS” (The Procter & Gamble Company, priority 2014, published 2016)

Test: Liquid dish neat product liquid-air partition coefficient
Type: physicochemical
Details: for Log of liquid dish neat product liquid-air partition coefficient (Comment Code K/L): class code letter within Comment Code; for Comment Code: Log of liquid dish neat product liquid-air partition coefficient: code letters K, L

SMILES | Log of liquid dish neat product liquid-air partition coefficient (Comment Code K/L) | Comment Code: Log of liquid dish neat product liquid-air partition coefficient
CCOC(C)OC1CCCCCCCCCCC1 (stereo not shown) [Material 363] | K (Log of liquid dish neat product liquid-air partition coefficient greater than or equal to −7) | 
CC(=O)OCC=C(C)CCC=C(C)CCC=C(C)C [Material 368] | K (Log of liquid dish neat product liquid-air partition coefficient greater than or equal to −7) | 
CC(C)=CCCC(C)=CCCC(C)=CCO [Material 369] | K (Log of liquid dish neat product liquid-air partition coefficient greater than or equal to −7) | 
O=C1CCCCCCCCCCCCCCO1 [Material 370] | K (Log of liquid dish neat product liquid-air partition coefficient greater than or equal to −7) | 
O=C1CCC=CCCCCCCCCCC1 [Material 371] | K (Log of liquid dish neat product liquid-air partition coefficient greater than or equal to −7) | 
O=C1CCC=CCCCCCCCCCC1 [Material 372] | K (Log of liquid dish neat product liquid-air partition coefficient greater than or equal to −7) | 
C=CCc1ccc(O)c(OC)c1 [Material 375] | K (Log of liquid dish neat product liquid-air partition coefficient greater than or equal to −7) | 
C=CCCCCCCCCC(=O)OCC [Material 381] | K (Log of liquid dish neat product liquid-air partition coefficient greater than or equal to −7) | 
CCCCCCCCCCCCCC(=O)OCC [Material 388] | K (Log of liquid dish neat product liquid-air partition coefficient greater than or equal to −7) | 
C=CC(O)(CC)CCC=C(C)C (stereo not shown) [Material 390] | K (Log of liquid dish neat product liquid-air partition coefficient greater than or equal to −7) | 
CCCCCCCCCC(=O)OCC [Material 397] | K (Log of liquid dish neat product liquid-air partition coefficient greater than or equal to −7) | 
CCOC(=O)C=Cc1ccccc1 [Material 400] |  | K (Log of liquid dish neat product liquid-air partition coefficient greater than or equal to −7)
CCC1=CCCC(C)(C)C12C=CC(C)O2 (stereo not shown) [Material 413] | K (Log of liquid dish neat product liquid-air partition coefficient greater than or equal to −7) | 
C=CC1(C)CCC(C(C)(C)O)CC1C(=C)C (stereo not shown) [Material 414] | K (Log of liquid dish neat product liquid-air partition coefficient greater than or equal to −7) | 
CCOC(C)OCCc1ccccc1 (stereo not shown) [Material 415] | K (Log of liquid dish neat product liquid-air partition coefficient greater than or equal to −7) | 
CC1=CCC(C=CC(C)C(C)O)C1(C)C (stereo not shown) [Material 416] | K (Log of liquid dish neat product liquid-air partition coefficient greater than or equal to −7) | 
CC1CCOC(c2ccccc2)C1 (stereo not shown) [Material 420] |  | K (Log of liquid dish neat product liquid-air partition coefficient greater than or equal to −7)
CCCCCCCCCCCC(OC)OC [Material 421] | K (Log of liquid dish neat product liquid-air partition coefficient greater than or equal to −7) | 
c1ccc(Oc2ccccc2)cc1 [Material 428] | K (Log of liquid dish neat product liquid-air partition coefficient greater than or equal to −7) | 
c1ccc(Cc2ccccc2)cc1 [Material 429] | K (Log of liquid dish neat product liquid-air partition coefficient greater than or equal to −7) | 
CCCC(=O)OC(C)(C)Cc1ccccc1 [Material 432] | K (Log of liquid dish neat product liquid-air partition coefficient greater than or equal to −7) | 
C=CC(C)CCCC(C)(C)O (stereo not shown) [Material 437] |  | K (Log of liquid dish neat product liquid-air partition coefficient greater than or equal to −7)
CCCc1ccc(O)c(OC)c1 [Material 440] |  | K (Log of liquid dish neat product liquid-air partition coefficient greater than or equal to −7)
C=C(C)C1CCC(C)C(OC(C)=O)C1 (stereo not shown) [Material 444] | K (Log of liquid dish neat product liquid-air partition coefficient greater than or equal to −7) | 
CC(=O)CCC1C(C)=CCCC1(C)C (stereo not shown) [Material 448] |  | K (Log of liquid dish neat product liquid-air partition coefficient greater than or equal to −7)
CCCCCCC1C(=O)CCC1C(=O)OC (stereo not shown) [Material 450] | K (Log of liquid dish neat product liquid-air partition coefficient greater than or equal to −7) | 

SMILES | Log of liquid dish neat product liquid-air partition coefficient (Comment Code K/L) | Comment Code: Log of liquid dish neat product liquid-air partition coefficient
c1ccc(COCc2ccccc2)cc1 [Material 454] |  | K (Log of liquid dish neat product liquid-air partition coefficient greater than or equal to −7)
c1ccc(CCc2ccccc2)cc1 [Material 457] | K (Log of liquid dish neat product liquid-air partition coefficient greater than or equal to −7) | 
C=CC1(C)CCC(C(C)C)=CC1C(=C)C (stereo not shown) [Material 461] | K (Log of liquid dish neat product liquid-air partition coefficient greater than or equal to −7) | 
CCCCCCCC1CCCC(=O)O1 (stereo not shown) [Material 463] | K (Log of liquid dish neat product liquid-air partition coefficient greater than or equal to −7) | 
CC=CC(=O)C1C(C)C=CCC1(C)C (stereo not shown) [Material 466] | K (Log of liquid dish neat product liquid-air partition coefficient greater than or equal to −7) | 
C=CCCCCCCCCO [Material 470] | K (Log of liquid dish neat product liquid-air partition coefficient greater than or equal to −7) | 
CCCCCCCCCCOC(=O)CC [Material 471] | K (Log of liquid dish neat product liquid-air partition coefficient greater than or equal to −7) | 
CCCCCCCCCC(OCC)OCC [Material 473] | K (Log of liquid dish neat product liquid-air partition coefficient greater than or equal to −7) | 
OC1CCC2CCCCC2C1 (stereo not shown) [Material 474] | K (Log of liquid dish neat product liquid-air partition coefficient greater than or equal to −7) | 
O=C1CCCCCCCCCCCCCC1 [Material 480] | K (Log of liquid dish neat product liquid-air partition coefficient greater than or equal to −7) | 
CCCC(=O)OC1CC2CC1C1CC=CC21 (stereo not shown) [Material 484] | K (Log of liquid dish neat product liquid-air partition coefficient greater than or equal to −7) | K (Log of liquid dish neat product liquid-air partition coefficient greater than or equal to −7)
CC1(C)CCCC2=C1CC(C=O)CC2 (stereo not shown) [Material 486] | K (Log of liquid dish neat product liquid-air partition coefficient greater than or equal to −7) | 
CC(C)C(=O)OC1CC2CC1C1C=CCC21 (stereo not shown) [Material 487] | K (Log of liquid dish neat product liquid-air partition coefficient greater than or equal to −7) | K (Log of liquid dish neat product liquid-air partition coefficient greater than or equal to −7)
C=CC1(C)Cc2occ(C)c2CC1C(=C)C (stereo not shown) [Material 488] | K (Log of liquid dish neat product liquid-air partition coefficient greater than or equal to −7) | K (Log of liquid dish neat product liquid-air partition coefficient greater than or equal to −7)
CC(C)c1ccc(CO)cc1 [Material 491] | K (Log of liquid dish neat product liquid-air partition coefficient greater than or equal to −7) | 
COc1cc(C)ccc1O [Material 492] |  | K (Log of liquid dish neat product liquid-air partition coefficient greater than or equal to −7)
c1ccc2occc2c1 [Material 493] | K (Log of liquid dish neat product liquid-air partition coefficient greater than or equal to −7) | 
CC(C)(O)CCC1CCCCC1 [Material 496] |  | K (Log of liquid dish neat product liquid-air partition coefficient greater than or equal to −7)
c1ccc(CCCc2ccccn2)cc1 [Material 497] | K (Log of liquid dish neat product liquid-air partition coefficient greater than or equal to −7) | 
CCCCCCCCCCCC#N [Material 498] | K (Log of liquid dish neat product liquid-air partition coefficient greater than or equal to −7) | 
C=CC(C)(C#N)Cc1ccccc1 (stereo not shown) [Material 504] |  | K (Log of liquid dish neat product liquid-air partition coefficient greater than or equal to −7)
CC(=CC#N)CCc1ccccc1 [Material 505] | K (Log of liquid dish neat product liquid-air partition coefficient greater than or equal to −7) | 
CC(C)=CCCC(C)=CC1OCC(C)O1 (stereo not shown) [Material 519] | K (Log of liquid dish neat product liquid-air partition coefficient greater than or equal to −7) | 
COC(C=C(C)CCC=C(C)C)OC [Material 520] | K (Log of liquid dish neat product liquid-air partition coefficient greater than or equal to −7) | 
CCOC(C=C(C)CCC=C(C)C)OCC [Material 521] | K (Log of liquid dish neat product liquid-air partition coefficient greater than or equal to −7) | 
C/C=C\c1ccc(O)c(OC)c1 [Material 528] |  | K (Log of liquid dish neat product liquid-air partition coefficient greater than or equal to −7)
